Data reported in patent US20260152533A1, “COMBINATION INHIBITORS FOR TREATING FIBROSIS” (Memorial Sloan-Kettering Cancer Center, priority 2021, published 2026).
Entries after “also recorded” stand apart in the source; their conditions may differ.

Columns and labels:
NIH-3T3 cells [1] = experiment: Growth experiments, NIH-3T3 cells; format: cell-based, mouse; conditions: for rescue of TGFβ-induced growth defect: TGFβ, 0.2, 1 or 5 mM metabolite
Text: (§1) NIH-3T3 cells were obtained from ATCC (CRL-1658); 293 T cells were obtained from ATCC (CRL-3216). PSCs were isolated from C57BL/6 mice by differential centrifugation as previously described^49 and their mesenchymal origin was validated by analyzing the expression of various mesenchymal and epithelial markers. MFBs were isolated from FVB/N mice by differential centrifugation as previously described^50. DB7 mouse breast cancer cells were obtained from Alexander Borowsky (University of California Davis Comprehensive Cancer Center, Sacramento, CA, USA) through an MTA to Ohio State University (OSU). KPC (Kras^LSL-G12D; Trp53^LSL-R172H; Pdx1-Cre) mouse PDAC cells were a gift from Scott Lowe (Memorial Sloan Kettering Cancer Center. (MSKCC)). All cells were cultured at 37° C. in 5% carbon dioxide (CO2) and 20% oxygen (O2) and were maintained in Dulbecco's Modified Eagles medium (DMEM) (25 mM D-glucose, 2 mM L-glutamine) supplemented with 10% fetal bovine serum (FBS) (Gemini), 100 units/ml penicillin and 100 μg/ml streptomycin. Primary PSC and MFB cells were kept in culture for no more than ten passages. Experiments with iCAFs and myCAFs were performed as previously described^29. In brief, qPSCs were generated by culturing PSCs in a dome of GFR Matrigel (Corning) in DMEM; iCAFs were generated by culturing PSCs in a dome of GFR Matrigel in DMEM conditioned by KPC cells for 48 h; myCAFs were generated by monolayer culture of PSCs. Differentiation was validated by analyzing the expression of iCAF/myCAF markers^29. For experiments with different glutamine concentrations, cells were seeded in regular DMEM and the medium was changed 5-6 hours later or the following day to glucose and glutamine-free DMEM supplemented with 10% dialyzed FBS (Gemini) and 20 mM D-glucose, 2 mM L-glutamine (100%), 0.4 mM L-glutamine (20%) or 0.2 mM L-glutamine (10%). All media were prepared by the Media Preparation Facility at MSKCC. Cells were verified as mycoplasma-free by the MycoAlert Mycoplasma Detection Kit (Lonza).
A total of 0.2×10^5 cells/well were plated in 24-well culture plates and media was changed and treatments started 5-6 hours later. Cell numbers at the start of treatment (day 0 “d 0”) and 1, 2 and 3 days later were counted using the Multisizer 4e (Beckman) and normalized to the cell number at d 0. In co-culture assays, a fraction of the cell population was analyzed by flow cytometry for GFP expression, and the rest counted with the Multisizer 4e. The number of KPC-GFP cells was determined by multiplying the fraction of GFP+ cells with the total number of cells.

NIH-3T3 cells [2] = experiment: Western blot of NIH-3T3 cells (collagen I, GCN2, ATF4, PC); format: cell-based, mouse; conditions: for rescue of TGFβ-induced collagen I depletion: metabolite; for GCN2 activation: cell-permeable metabolite
Text: as §1, with “PSCs” for “NIH-3T3 cells were obtained from ATCC (CRL-1658); 293 T cells were obtained from ATCC (CRL-3216). PSCs”
Lysates were generated by incubating cells or ground tumors in RIPA buffer (Millipore); […] of cleared lysate were analyzed by SDS-polyacrylamide gel electrophoresis (SDS-PAGE) as previously described^11. […] The following secondary antibodies were used: anti-rabbit horseradish peroxidase (HRP) (1:5,000; GE, NA934V), anti-mouse HRP (1:5,000; GE, NA931). Quantification of band intensities of collagen I relative to […] or vinculin in tumor allograft experiments was performed with Image Lab software v6.0 (Bio-Rad).

[3] = PC-deleted cells, low Gln, 48 hours (FIG. 4B; MFBs FIG. 11E)
[4] = low Gln (10%), TGFβ, 48 hours (FIG. 1E)

Molecule	rescue of TGFβ-induced growth defect (NIH-3T3 cells [1]; 10% Gln, 3 days)	rescue of TGFβ-induced collagen I depletion (NIH-3T3 cells [2]; 10% Gln, TGFβ, 48 hours)	collagen I levels (NIH-3T3 cells [2]; [3])	GCN2 activation (NIH-3T3 cells [2]; low Gln (10%), TGFβ, 48 hours)	cell proliferation (NIH-3T3 cells [1]; 10% Gln, TGFβ)	cell proliferation (NIH-3T3 cells [1]; 100% and 50% Gln, TGFβ 2 ng/mL, 3 days)	collagen I production (NIH-3T3 cells [2]; 10% Gln, TGFβ)	collagen I levels (NIH-3T3 cells [2]; 20% Gln, TGFβ, 48 hours (FIG. 1B))	repressive phosphorylation of the E1α subunit of the pyruvate dehydrogenase (PDH) complex (NIH-3T3 cells [2]; 100% Gln, TGFβ 48 hours (FIG. 3B))	collagen I levels in growing cells (NIH-3T3 cells [2]; 100% and 50% Gln, TGFβ, 48 hours)	PC protein levels (NIH-3T3 cells [2]; all fibroblast types analysed, TGFβ 48 hours)	ATF4 (NIH-3T3 cells [2]; [4])	GCN2 phosphorylation (NIH-3T3 cells [2]; [4])
COC(=O)CC[C@H](N)C(=O)OC [dm-Glu, L-glutamic acid dimethylester]	sufficient to restore	sufficient to restore	increased	prevented	–	–	–	–	–	–	–	–	–
COC(=O)CCC(=O)C(=O)OC [dm-αKG, dimethyl alpha-ketoglutarate]	able to rescue	able to rescue	increased	prevented; also recorded: suppressed	–	–	–	–	–	–	–	–	–
TGFβ: transforming growth-factor beta; TGFβ-1 purchased from Peprotech	–	–	–	–	ceased to proliferate	did not change	ceased to proliferate and produce collagen I	no longer able to increase	reduced	upregulated	reduced	upregulated	displayed phosphorylation
